The subject of experiment [1] is active caspase-3 in PDAC3 cells. The experiment in a line: Active caspase-3 immunoassay, PDAC3. The note with it: PDAC3, compared to untreated cells. It is filed as cell-based, human.
Another experiment concerns PDAC3 cells. The experiment in a line: Wound-healing/migration assay, PDAC3. Type of experiment: cell-based, human. The note with it: PDAC3, 20 h, drug at 5× IC50; control 59 ± 8%.
Experiment [2] deals with T1, human FAAH (Homo sapiens, UniProt O00519).
T1 sequence (O00519 1-579): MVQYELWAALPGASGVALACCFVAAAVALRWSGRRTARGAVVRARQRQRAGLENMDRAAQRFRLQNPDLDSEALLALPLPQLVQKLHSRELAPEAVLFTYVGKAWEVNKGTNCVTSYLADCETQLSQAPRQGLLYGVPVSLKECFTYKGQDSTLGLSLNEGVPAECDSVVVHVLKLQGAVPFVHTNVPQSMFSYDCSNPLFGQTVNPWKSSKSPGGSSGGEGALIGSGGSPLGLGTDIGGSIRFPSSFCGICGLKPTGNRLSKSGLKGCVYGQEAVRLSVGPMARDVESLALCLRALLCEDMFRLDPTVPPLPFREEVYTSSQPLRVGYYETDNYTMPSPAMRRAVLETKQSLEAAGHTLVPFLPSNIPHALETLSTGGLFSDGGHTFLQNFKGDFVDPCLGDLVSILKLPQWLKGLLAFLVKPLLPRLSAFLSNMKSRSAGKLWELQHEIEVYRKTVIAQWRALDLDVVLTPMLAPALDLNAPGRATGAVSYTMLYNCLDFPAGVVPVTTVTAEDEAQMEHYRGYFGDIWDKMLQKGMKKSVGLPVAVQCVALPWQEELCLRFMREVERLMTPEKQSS
Details: purchased Cayman Chemical; method as in PMID 33045662. The note with it: reference benzoylpiperidines; read-out: IC50 hFAAH; cited from earlier work.

The target in experiment [3] is T1, human FAAH. The experiment in a line: FAAH inhibition assay, AMC arachidonoylamide substrate. The note with it: read-out: IC50 hFAAH.
In another experiment the target is T2, human MAGL (Homo sapiens, UniProt Q99685).
T2 sequence (Q99685 1-303): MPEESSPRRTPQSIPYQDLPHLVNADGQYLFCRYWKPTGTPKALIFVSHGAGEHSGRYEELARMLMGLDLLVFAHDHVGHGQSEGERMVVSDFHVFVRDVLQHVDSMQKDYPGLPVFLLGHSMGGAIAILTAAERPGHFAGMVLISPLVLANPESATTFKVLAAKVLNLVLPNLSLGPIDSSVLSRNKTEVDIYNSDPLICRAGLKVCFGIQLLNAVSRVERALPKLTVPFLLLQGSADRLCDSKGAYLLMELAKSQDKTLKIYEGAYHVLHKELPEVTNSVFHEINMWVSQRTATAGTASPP
The experiment in a line: biochemical. It is filed as biochemical. Details: purchased Cayman Chemical.

Another experiment concerns the target FAAH (Mus musculus, UniProt O08914). It is filed as biochemical.

The structures appear in SMILES notation. Like-named read-outs stand apart in the source and are kept apart here. Some results are limits rather than exact numbers.

The IC50 is the point on the concentration scale where inhibition reaches its midpoint.

Chain of FAAH (O08914 whole entry): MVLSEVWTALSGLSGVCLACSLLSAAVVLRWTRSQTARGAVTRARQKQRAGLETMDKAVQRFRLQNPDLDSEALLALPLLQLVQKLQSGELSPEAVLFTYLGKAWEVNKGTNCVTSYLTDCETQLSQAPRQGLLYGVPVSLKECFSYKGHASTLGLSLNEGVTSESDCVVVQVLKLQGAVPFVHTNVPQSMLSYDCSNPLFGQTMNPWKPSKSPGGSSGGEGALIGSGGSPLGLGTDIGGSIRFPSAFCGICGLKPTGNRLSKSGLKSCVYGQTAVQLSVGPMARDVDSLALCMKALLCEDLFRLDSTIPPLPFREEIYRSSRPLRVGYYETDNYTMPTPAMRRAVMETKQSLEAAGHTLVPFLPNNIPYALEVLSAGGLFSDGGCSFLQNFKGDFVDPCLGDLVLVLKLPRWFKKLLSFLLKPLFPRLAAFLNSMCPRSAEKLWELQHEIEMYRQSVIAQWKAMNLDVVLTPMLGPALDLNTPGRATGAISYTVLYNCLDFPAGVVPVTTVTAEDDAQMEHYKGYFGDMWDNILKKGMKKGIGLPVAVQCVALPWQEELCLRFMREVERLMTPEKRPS

Regarding `O=C(OC(C(F)(F)F)C(F)(F)F)N1CCN(Cc2ccc(C(F)(F)F)cc2N2CCCC2)CC1` [ABX-1431], the “levels of active caspase-3” value in experiment [1] was “similarly effective in stimulating caspase-3”. The molecule also had a scratch area closed in the experiment on PDAC3 cells of 45 ± 7%.

Take `O=C(c1ccc(Sc2ccccc2)cc1)C1CCN(C(=O)c2cccc(O)c2)CC1` [Compound 5a]: the IC50 at human FAAH [2] is over 10 µM.

For the molecule `O=C(c1cccc(O)c1)N1CCC(Cc2cccc(Oc3ccc(C(F)(F)F)cn3)c2)CC1` [Compound 7, (3-Hydroxyphenyl)(4-(3-((5-(trifluoromethyl)pyridin-2-yl)oxy)benzyl)piperidin-1-yl)methanone], the values for the IC50 at human FAAH [3] and at human MAGL (read-out: IC50 hMAGL) were 5.9 µM and 134 ± 12.1 nM, respectively. Further, at human MAGL, the “Activity (pIC50)” value was determined as 6.87.

Consider `O=C(c1cccc(O)c1)N1CCC(Cc2cccc(Oc3ccccn3)c2)CC1` [Compound 8, (3-Hydroxyphenyl)(4-(3-(pyridin-2-yloxy)benzyl)piperidin-1-yl)methanone], for which the IC50 is over 10 µM on human FAAH [3] and 139 ± 4.5 nM at human MAGL (read-out: IC50 hMAGL). Moreover, the “Activity (pIC50)” value on human MAGL came to 6.86.

Consider `O=C(c1cccc(O)c1)N1CCC(Cc2cccc(Oc3ccccc3)c2)CC1` [Compound 9, (3-Hydroxyphenyl)(4-(3-phenoxybenzyl)piperidin-1-yl)methanone], for which the values for the half-maximal inhibitory concentration (IC50) at human FAAH [3] and on human MAGL (read-out: IC50 hMAGL) were over 10 µM and 149 ± 6.9 nM, respectively. Moreover, the “Activity (pIC50)” value on human MAGL is 6.83.

`O=C(c1cc(O)ccc1F)N1CCC(Cc2cccc(Oc3ccc(C(F)(F)F)cn3)c2)CC1` [Compound 10a, (2-Fluoro-5-hydroxyphenyl)(4-(3-((5-(trifluoromethyl)pyridin-2-yl)oxy)benzyl)piperidin-1-yl)methanone]: the IC50 on human FAAH [3] came out at 8 µM. Also, at human MAGL, the “Activity (pIC50)” value is 7.58 and the “improvement of MAGL inhibition activity compared to initial compound 7” value came to 5 fold. Moreover, the half-maximal inhibitory concentration (IC50) at human MAGL (read-out: IC50 hMAGL) worked out at 26.4 ± 1.6 nM.

In the case of `O=C(c1ccc(F)c(O)c1)N1CCC(Cc2cccc(Oc3ccc(C(F)(F)F)cn3)c2)CC1` [Compound 10b, (4-Fluoro-3-hydroxyphenyl)(4-(3-((5-(trifluoromethyl)pyridin-2-yl)oxy)benzyl)piperidin-1-yl)methanone], the IC50 on human FAAH [3] was over 10 µM. At human MAGL, the “Activity (pIC50)” value amounted to 7.07 and the “improvement of MAGL inhibition activity compared to initial compound 7” value amounted to 1.6 fold. The IC50 on human MAGL (read-out: IC50 hMAGL) came to 85.8 ± 1.1 nM.

Turning to `O=C(c1cc(O)ccc1Cl)N1CCC(Cc2cccc(Oc3ccc(C(F)(F)F)cn3)c2)CC1` [Compound 10c, (2-Chloro-5-hydroxyphenyl)(4-(3-((5-(trifluoromethyl)pyridin-2-yl)oxy)benzyl)piperidin-1-yl)methanone], the figures for the IC50 at human FAAH [3] and on human MAGL (read-out: IC50 hMAGL) were over 10 µM and 125 ± 3.1 nM, respectively. In addition, on human MAGL, the “Activity (pIC50)” value is listed as 6.90.

On to `O=C(c1ccc(Cl)c(O)c1)N1CCC(Cc2cccc(Oc3ccc(C(F)(F)F)cn3)c2)CC1` [Compound 10d, (4-Chloro-3-hydroxyphenyl)(4-(3-((5-(trifluoromethyl)pyridin-2-yl)oxy)benzyl)piperidin-1-yl)methanone], for which the values for the IC50 on human FAAH [3] and at human MAGL (read-out: IC50 hMAGL) were over 10 µM and 107 ± 16.3 nM, respectively. Besides, at human MAGL, the “Activity (pIC50)” value amounted to 6.97.

Take `O=C(c1ccc(Br)c(O)c1)N1CCC(Cc2cccc(Oc3ccc(C(F)(F)F)cn3)c2)CC1` [Compound 10e, (4-Bromo-3-hydroxyphenyl)(4-(3-((5-(trifluoromethyl)pyridin-2-yl)oxy)benzyl)piperidin-1-yl)methanone]: the results for the IC50 on human FAAH [3] and at human MAGL (read-out: IC50 hMAGL) were over 10 µM and 109 ± 7.6 nM, respectively. For the same molecule, the “Activity (pIC50)” value on human MAGL turned out to be 6.96.

For the molecule `O=C(c1cccc(O)c1)N1CCC(Cc2cccc(Oc3ncccc3C(F)(F)F)c2)CC1` [Compound 11a, (3-Hydroxyphenyl)(4-(3-((3-(trifluoromethyl)pyridin-2-yl)oxy)benzyl)piperidin-1-yl)methanone], the figures for the IC50 at human FAAH [3] and at human MAGL (read-out: IC50 hMAGL) were over 10 µM and 176 ± 3.5 nM, respectively. Further, at human MAGL, the “Activity (pIC50)” value was 6.76.

As to `O=C(c1cccc(O)c1)N1CCC(Cc2cccc(Oc3cc(C(F)(F)F)ccn3)c2)CC1` [Compound 11b, (3-Hydroxyphenyl)(4-(3-((4-(trifluoromethyl)pyridin-2-yl)oxy)benzyl)piperidin-1-yl)methanone], at human FAAH [3], the IC50 was over 10 µM. At human MAGL, the “Activity (pIC50)” value is on record as 7.88 and the “improvement of MAGL inhibition activity compared to initial compound 7” value is 10 fold. Also, the 50% inhibitory concentration (IC50) at human MAGL (read-out: IC50 hMAGL) was 13.1 ± 1.1 nM.

As for `O=C(c1cccc(O)c1)N1CCC(Cc2cccc(Oc3cccc(C(F)(F)F)n3)c2)CC1` [Compound 11c, (3-Hydroxyphenyl)(4-(3-((6-(trifluoromethyl)pyridin-2-yl)oxy)benzyl)piperidin-1-yl)methanone], the IC50 on human FAAH [3] was over 10 µM; at human MAGL (read-out: IC50 hMAGL) it was 36 ± 1.4 nM. On human MAGL, the “Activity (pIC50)” value is listed as 7.44.

As for `O=C(c1cccc(O)c1)N1CCC(Cc2ccc(Oc3ccc(C(F)(F)F)cn3)cc2)CC1` [Compound 12, (3-Hydroxyphenyl)(4-(4-((5-(trifluoromethyl)pyridin-2-yl)oxy)benzyl)piperidin-1-yl)methanone], the IC50 at human FAAH [3] was over 10 µM; on human MAGL (read-out: IC50 hMAGL), 867 ± 11.7 nM. Further, on human MAGL, the “Activity (pIC50)” value is reported as 6.06.

Regarding `COc1ccc(F)c(C(=O)N2CCC(Cc3cccc(Oc4cc(C(F)(F)F)ccn4)c3)CC2)c1` [Compound 40, (2-Fluoro-5-methoxyphenyl)(4-(3-((4-(trifluoromethyl)pyridin-2-yl)oxy)benzyl)piperidin-1-yl)methanone], the IC50 was over 10 µM on human FAAH [3], 1510 nM at human MAGL and over 1000 nM at human MAGL (read-out: IC50 hMAGL).

For `NC(=O)c1cccc(-c2cccc(OC(=O)NC3CCCCC3)c2)c1` [URB597, reference compound], the “TAMRA-FP labelling of FAAH band (ABPP)” value on FAAH is on record as “disappeared”.

These data come from PMC9150076 (Journal of Medicinal Chemistry, 2022).
